Measured values taken from patent publication US10851115B2, “Heterocyclic compounds as RSV inhibitors” (Enanta Pharmaceuticals, Inc., priority 2017, dated 2020).
Read-outs that look alike come from different tables or passages of the source.

System: Human RSV-A (“Long” strain)
Test: RSV in vitro cytoprotection assay in HEp-2 cells (ATPlite readout)
Format: cell-based
Conditions: human respiratory syncytial virus
Summary of the method: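 HEp-2 cells (8,000/well) given 2-fold compound dilutions in duplicate, then infected with RSV-A Long stock; 4-day incubation. Cell viability read by ATPlite luminescence (ATP), with parallel uninfected plate for cytotoxicity; EC50 from protection against CPE.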

[1] = 96 h, HEp-2 cells, 4-day incubation, ATPlite, read-out: Human RSV-A (“Long” strain) EC50

Row | Compound | EC50 [1] | EC50 (HEp-2)
1 | Cc1cnc(N2CC3(CCOCC3)C2)c(C(=O)Nc2ccc(C(=O)N3CCc4cc(C(=O)Nc5c(F)cccc5F)sc4-c4nc(C)ccc43)cc2)c1 [Example 138] | 10 to 50 nM | 
2 | Cc1cnc(N2CC3(CCOCC3)C2)c(C(=O)Nc2ccc(C(=O)N3CCc4cc(C(=O)Nc5c(C)cccc5F)sc4-c4nc(C)ccc43)cc2)c1 [Example 139] | 10 to 50 nM | 
3 | Cc1cnc(N2CC3(CCOCC3)C2)c(C(=O)Nc2ccc(C(=O)N3CCc4cc(C(=O)Nc5ncccc5F)sc4-c4nc(C)ccc43)cc2)c1 [Example 140] | 10 to 50 nM | 
4 | Cc1cnc(N2CC3(CCOCC3)C2)c(C(=O)Nc2ccc(C(=O)N3CCc4cc(C(=O)Nc5c(C)cccc5C#N)sc4-c4nc(C)ccc43)cc2)c1 [Example 141] | > 50 nM | 
5 | Cc1cnc(N2CC3(CCOCC3)C2)c(C(=O)Nc2ccc(C(=O)N3CCc4cc(C(=O)Nc5c(F)cccc5Cl)sc4-c4nc(C)ccc43)cc2)c1 [Example 142] | 10 to 50 nM | 
6 | Cc1cnc(N2CC3(CCOCC3)C2)c(C(=O)Nc2ccc(C(=O)N3CCc4cc(C(=O)Nc5c(F)cccc5C(F)(F)F)sc4-c4nc(C)ccc43)cc2)c1 [Example 143] | > 50 nM | 
7 | Cc1ccc2c(n1)-c1sc(C(=O)Nc3c(F)cccc3F)cc1CCN2C(=O)c1ccc(NC(=O)c2ccc(C)nc2N2CC3(CCOCC3)C2)cc1 [Example 144] | 10 to 50 nM | 
8 | Cc1ccc2c(n1)-c1sc(C(=O)Nc3c(C)cccc3F)cc1CCN2C(=O)c1ccc(NC(=O)c2ccc(C)nc2N2CC3(CCOCC3)C2)cc1 [Example 145] | > 50 nM | 
9 | Cc1ccc2c(n1)-c1sc(C(=O)Nc3ncccc3F)cc1CCN2C(=O)c1ccc(NC(=O)c2ccc(C)nc2N2CC3(CCOCC3)C2)cc1 [Example 146] | 10 to 50 nM | 
10 | Cc1ccc2c(n1)-c1sc(C(=O)Nc3c(C)cccc3C#N)cc1CCN2C(=O)c1ccc(NC(=O)c2ccc(C)nc2N2CC3(CCOCC3)C2)cc1 [Example 147] | > 50 nM | 
11 | Cc1ccc2c(n1)-c1sc(C(=O)Nc3c(F)cccc3Cl)cc1CCN2C(=O)c1ccc(NC(=O)c2ccc(C)nc2N2CC3(CCOCC3)C2)cc1 [Example 148] | > 50 nM | 
12 | Cc1ccc2c(n1)-c1sc(C(=O)Nc3c(F)cccc3C(F)(F)F)cc1CCN2C(=O)c1ccc(NC(=O)c2ccc(C)nc2N2CC3(CCOCC3)C2)cc1 [Example 149] | > 50 nM | 
13 | Cc1cnc(N2CC3(CCOCC3)C2)c(C(=O)Nc2ccc(C(=O)N3CCc4cc(NC(=O)c5c(F)cccc5F)sc4-c4ncccc43)cc2)c1 [Example 151] | < 10 nM | 
14 | Cc1cnc(N2CC3(CCOCC3)C2)c(C(=O)Nc2ccc(C(=O)N3CCc4cc(NC(=O)c5c(C)cccc5F)sc4-c4ncccc43)cc2)c1 [Example 152] | < 10 nM | 
15 | Cc1cnc(N2CC3(CCOCC3)C2)c(C(=O)Nc2ccc(C(=O)N3CCc4cc(NC(=O)c5c(F)cccc5Cl)sc4-c4ncccc43)cc2)c1 [Example 153] | < 10 nM | 
16 | Cc1cnc(N2CC3(CCOCC3)C2)c(C(=O)Nc2ccc(C(=O)N3CCc4cc(NC(=O)c5ncccc5F)sc4-c4ncccc43)cc2)c1 [Example 154] | < 10 nM | 
17 | Cc1cnc(N2CC3(CCOCC3)C2)c(C(=O)Nc2ccc(C(=O)N3CCc4cc(NC(=O)c5ccccc5)sc4-c4ncccc43)cc2)c1 [Example 155] | < 10 nM | 
18 | Cc1cnc(N2CC3(CCOCC3)C2)c(C(=O)Nc2ccc(C(=O)N3CCc4cc(NC(=O)c5ccccc5F)sc4-c4ncccc43)cc2)c1 [Example 156] | < 10 nM | 
19 | Cc1ccc(C(=O)Nc2ccc(C(=O)N3CCc4cc(NC(=O)c5c(F)cccc5F)sc4-c4ncccc43)cc2)c(N2CC3(CCOCC3)C2)n1 [Example 157] | < 10 nM | 
20 | Cc1ccc(C(=O)Nc2ccc(C(=O)N3CCc4cc(NC(=O)c5c(C)cccc5F)sc4-c4ncccc43)cc2)c(N2CC3(CCOCC3)C2)n1 [Example 158] | 10 to 50 nM | 
21 | Cc1ccc(C(=O)Nc2ccc(C(=O)N3CCc4cc(NC(=O)c5c(F)cccc5Cl)sc4-c4ncccc43)cc2)c(N2CC3(CCOCC3)C2)n1 [Example 159] | 10 to 50 nM | 
22 | Cc1ccc(C(=O)Nc2ccc(C(=O)N3CCc4cc(NC(=O)c5ccccc5F)sc4-c4ncccc43)cc2)c(N2CC3(CCOCC3)C2)n1 [Example 160] | < 10 nM | 
23 | Cc1cnc2c(c1)N(C(=O)c1ccc(NC(=O)c3cccnc3N3CC4(CCOCC4)C3)cc1)CCc1cc(C(=O)Nc3c(C)cccc3F)sc1-2 [Example 161] | < 10 nM | 
24 | Cc1cnc2c(c1)N(C(=O)c1ccc(NC(=O)c3cccnc3N3CC4(CCOCC4)C3)cc1)CCc1cc(C(=O)Nc3c(F)cccc3Cl)sc1-2 [Example 162] | < 10 nM | 
25 | Cc1cnc2c(c1)N(C(=O)c1ccc(NC(=O)c3cccnc3N3CC4(CCOCC4)C3)cc1)CCc1cc(C(=O)Nc3c(F)cccc3F)sc1-2 [Example 164] | < 10 nM | 
26 | O=C(Nc1ccccc1F)N[C@H]1N=C(c2ccccc2)c2ccccc2NC1=O [RSV-604, reference compound] |  | ~2400 nM
